Key:
[1] = system: Streptozotocin-diabetic mice; conditions: Nojima et al. 1998; cited from earlier work
[2] = system: lactase; conditions: Kato et al. 1997; cited from earlier work
[3] = system: alpha-glycosidase; conditions: Kato et al. 1997; cited from earlier work
[4] = system: Escherichia coli; assay: Adhesion of Escherichia coli to mucus (pig intestinal mucosa); type: cell-based; conditions: 10 mg/L D-fagomine
Procedure: Adhesion to Mucus. Protocol
The strains of Escherichia coli used were obtained from the Bacterial Strain Collection of the Faculty of Veterinary Science at the Universitat Autònoma de Barcelona. Overnight, cultures of the bacterial strain were inoculated into flasks containing Luria medium (Liofilchem, Roseto degli Abruzzi, Italy) (3 mL) to facilitate the production of fimbriae. The strains were incubated at 37° C. for 24 h. Then, colonies were grown on Luria medium Agar plates and after 24 h of incubation, several dilutions were prepared in PBS (phosphate buffered saline, Sigma Aldrich, St Louis, Mo., USA) for each strain, down to a concentration of 1×10^7 CFU mL^−1.
The mucosa was obtained from intestinal segments of pigs, just after they were killed at a local slaughterhouse, and kept frozen until use. The mucosa preparation (1 mL) was defrosted, centrifuged and mixed with PBS (99 mL). Prior to each test, the concentration of mucine in the suspension was calculated by the Bradford method. Multiwell plates (Nunc®, Roskilde, Denmark) were treated with the mucosa suspension (2.5 mL) overnight at 4° C. […] Finally, the colony forming units from both the supernatant and mucosa were counted under an optical microscope after cultivating both fractions overnight.

[5] = system: Sprague-Dawley rats; assay: Post-prandial blood glucose test after sucrose administration; type: in vivo, rat; conditions: sucrose 2 g/kg, 1.0 mg/kg D-fagomine
Procedure: The effect on postprandial blood glucose of both D-fagomine enriched extract from buckwheat and D-fagomine obtained chemoenzimatically following the procedure described in WO2008025826A1 was evaluated. Adult male Sprague-Dawley rats of 200-220 g body weight (Janvier, Le Genest-St-Isle, France) were housed in cages (n=2/cage) under controlled conditions of stable humidity (40-77%), and temperature (23° C.) with a 12-hour light/dark cycle. The rats were fed a standard diet (Panlab A04, Panlab, Barcelona, Spain) and given water ad libitum. To minimize circadian rhythm effects, rat manipulations were carried out in the morning. Handling and sacrificing of the animals were in full accordance with the European Union guidelines for the care and management of laboratory animals and the pertinent permission was obtained from the CSIC Subcommittee of Bioethical Issues. The authors further attest that all efforts were made to minimize the number of animals used and their suffering. The glucose test was performed after a 12 h food deprivation period. A solution of sucrose (2 g/kg body weight) together with the appropriate amount of the compound being tested was administered to the rats. […] Blood glucose concentration was measured by the enzyme electrode method using Elite blood glucose test strips and a blood glucose meter Ascensia ELITE XL both from Bayer Consumer Care AG (Basel, Switzerland). […]

Which results are given for `OC[C@H]1NCC[C@@H](O)[C@@H]1O` [D-fagomine WO2008025826A1, (2R,3R,4R)-2-(hydroxymethyl)piperidine-3,4-diol]?
antihyperglycemic effect [1]: antihyperglycemic effect; lactase inhibition [2]: weak inhibitor; alpha-glycosidase inhibition [3]: weak inhibitor; Agglutination of the microorganisms [4]: agglutinated; Bacterial adhesion to the mucus [4]: not detected; Increase in plasma glucose after sucrose administration [5]: lowered
